This is an account of results in patent US20220340598A1, “PYRAZOLOPYRIDINONE COMPOUNDS” (Janssen Pharmaceutica NV, priority 2017, published 2022).

Where a name gives a salt, the structure may show the parent alone.

Experiment [1] addresses T1, NIH/3T3 cells overexpressing FGFR3 WT-TACC3 fusion protein (Homo sapiens, UniProt P22607).
T1 construct: fused on or other part: Q9Y6A5 (Transforming acidic coiled-coil-containing protein 3)
Briefly: NIH/3T3 FGFR3 WT-TACC3 cell proliferation assay. The experiment is classed as cell-based. The conditions noted are these: 72-hr incubation, CellTiter Glo; read-out: NIH/3T3 FGFR3 WT-TACC3 CTG (IC50). Here is the method: NIH/3T3 FGFR3 WT-TACC3 Cell Proliferation Assay
(§1) In day 1, 90 μL of cell suspension (NIH/3T3 cells overexpressing FGFR3 WT-TACC3 fusion protein) (total 30,000 cells per well in growth medium (DMEM containing 1% Glutamax, 10% FBS and 1% Pen/Strep)) was seeded in a 96-well plate and then incubated overnight at 37° C. and 5% CO2. In day 2, 10 μL of growth medium containing 10-fold stock solution of testing compound was added into cell cultures (9 dose points with 4× serial dilution, starting with 10 μM, 0.1% DMSO final). After 72-hr incubation at 37° C. and 5% CO2, in day 5 a volume of 50 μL CellTiter Glo (CTG) reagent was added into cell-containing 96-well plate and the plate was incubated at room temperature for 10 minutes before RLUs (relative light unit) were measured on a microplate reader with luminescence detection module. The RLU value was normalized to survival % and concentration-response curve was plotted using Prism to calculate IC50 (M), pIC50 (−log IC50) and HillSlope value.

In experiment [2] the target is T2, NIH/3T3 cells overexpressing FGFR3 V555M-TACC3 fusion protein (Homo sapiens, UniProt P22607, V555M, cells depend on it).
T2 construct: fused on or other part: Q9Y6A5 (Transforming acidic coiled-coil-containing protein 3)
Briefly: NIH/3T3 FGFR3 V555M-TACC3 cell proliferation assay. The experiment is classed as cell-based. To be noted: 72-hr incubation, CellTiter Glo; read-out: NIH/3T3 FGFR3 V555M-TACC3 CTG (IC50). The protocol: NIH/3T3 FGFR3 V555M-TACC3 Cell Proliferation Assay
as §1, with “V555M-TACC3” for “WT-TACC3”

T1 sequence (P22607 whole entry, change not shown, the tested form may be a part): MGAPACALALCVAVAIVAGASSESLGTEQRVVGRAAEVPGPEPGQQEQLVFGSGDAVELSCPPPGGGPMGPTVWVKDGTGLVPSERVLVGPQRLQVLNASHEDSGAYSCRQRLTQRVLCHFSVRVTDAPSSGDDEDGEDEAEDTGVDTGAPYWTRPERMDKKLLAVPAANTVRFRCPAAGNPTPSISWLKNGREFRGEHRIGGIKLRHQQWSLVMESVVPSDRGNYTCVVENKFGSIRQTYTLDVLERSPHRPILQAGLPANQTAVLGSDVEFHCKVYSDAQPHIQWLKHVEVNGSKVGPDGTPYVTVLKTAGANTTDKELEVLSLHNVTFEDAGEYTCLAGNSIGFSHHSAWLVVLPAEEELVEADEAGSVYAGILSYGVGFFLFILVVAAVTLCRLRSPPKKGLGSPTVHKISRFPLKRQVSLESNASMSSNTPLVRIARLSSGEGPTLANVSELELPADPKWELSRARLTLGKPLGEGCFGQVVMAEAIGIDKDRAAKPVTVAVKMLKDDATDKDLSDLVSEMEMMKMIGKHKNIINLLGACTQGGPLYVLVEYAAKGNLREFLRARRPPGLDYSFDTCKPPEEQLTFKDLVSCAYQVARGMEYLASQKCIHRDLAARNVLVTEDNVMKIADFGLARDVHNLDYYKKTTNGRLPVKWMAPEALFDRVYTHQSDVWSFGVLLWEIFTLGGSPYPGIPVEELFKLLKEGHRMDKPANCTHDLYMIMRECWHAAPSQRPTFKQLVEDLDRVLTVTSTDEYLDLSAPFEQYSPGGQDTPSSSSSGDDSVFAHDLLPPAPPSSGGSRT
T2 sequence (P22607 whole entry V555M, the tested form may be a part): as the sequence (P22607 whole entry, change not shown, the tested form may be a part) above, with V555M counted along it

`COCC(Nc1c(-c2nc3ccc(OC)cc3[nH]2)c(=O)[nH]c2cn(C)nc12)c1ncccn1` (single isomer, unassigned) [Compound 12, (S*)-7-((2-methoxy-1-(pyrimidin-2-yl)ethyl)amino)-6-(6-methoxy-1H-benzo[d]imidazol-2-yl)-2-methyl-2H-pyrazolo[4,3-b]pyridin-5(4H)-one]: the GI50 in experiment [1] was found to be 0.106 µM; in experiment [2] it was 0.109 µM.

In the case of `CCC(Nc1c(-c2nc3ccc(OC)cc3[nH]2)c(=O)[nH]c2cn(C)nc12)c1ncccn1` (single isomer, unassigned) [Compound 17, (R*)-6(6-Methoxy-1H-benzo[d]imidazol-2-yl)-2-methyl-7-((1-(pyrimidin-2-yl)propyl)amino)-2H-pyrazolo[4,3-b]pyridin-5(4H)-one], the GI50 turned out to be 0.0276 µM in experiment [1] and 0.0239 µM in experiment [2]. For `COc1cc2[nH]c(-c3c(NC(c4ncccn4)C(C)C)c4nn(C)cc4[nH]c3=O)nc2cn1` (single isomer, unassigned) [Compound 18, (S*)-6-(6-methoxy-1H-imidazo[4,5-c]pyridin-2-yl)-2-methyl-7-((2-methyl-1-(pyrimidin-2-yl)propyl)amino)-2H-pyrazolo[4,3-b]pyridin-5(4H)-one] the same measures were 0.0719 µM and 0.0515 µM. For the compound `COc1cnc2nc(-c3c(NC(c4ncccn4)C(C)C)c4nn(C)cc4[nH]c3=O)[nH]c2c1` (single isomer, unassigned) [Compound 40, (S*)-6-(6-methoxy-1H-imidazo[4,5-b]pyridin-2-yl)-2-methyl-7-((2-methyl-1-(pyrimidin-2-yl)propyl)amino)-2,4-dihydro-5H-pyrazolo[4,3-b]pyridin-5-one], the GI50 in experiment [1] is 0.081 µM; in experiment [2] it was 0.0785 µM.

Consider `CCC(Nc1c(-c2nc3cc(OC)c(OC)cc3[nH]2)c(=O)[nH]c2cn(C)nc12)c1ncccn1` (single isomer, unassigned) [Compound 42, (S*)-6-(5,6-dimethoxy-1H-benzo[d]imidazol-2-yl)-2-methyl-7-((1-(pyrimidin-2-yl)propyl)amino)-2H-pyrazolo[4,3-b]pyridin-5(4H)-one], for which the GI50 in experiment [2] amounted to 0.0182 µM. Consider `CCC(Nc1c(-c2nc3cc(OC)c(OC)cc3[nH]2)c(=O)[nH]c2cn(CC)nc12)c1ncccn1` (single isomer, unassigned) [Compound 44, (S*)-6-(5,6-dimethoxy-1H-benzo[d]imidazol-2-yl)-2-ethyl-7-((1-(pyrimidin-2-yl)propyl)amino)-2H-pyrazolo[4,3-b]pyridin-5(4H)-one], for which the GI50 in experiment [1] came out at 0.0317 µM; in experiment [2], 0.0516 µM. For `COc1cc2nc(-c3c(NC(c4ncccn4)C4CC4)c4nn(C)cc4[nH]c3=O)[nH]c2cc1OC` (single isomer, unassigned) [Compound 46, (S*)-7-((cyclopropyl(pyrimidin-2-yl)methyl)amino)-6-(5,6-dimethoxy-1H-benzo[d]imidazol-2-yl)-2-methyl-2H-pyrazolo[4,3-b]pyridin-5(4H)-one] the same measures were 0.0227 µM and 0.0276 µM. For `CC(C)[C@H](Nc1c(-c2nc3ncc(N(C)C)cc3[nH]2)c(=O)[nH]c2cn(C)nc12)c1ncccn1` (stereo in doubt) [Compound 23, (S*)-6-(6-(dimethylamino)-1H-imidazo[4,5-b]pyridin-2-yl)-2-methyl-7-((2-methyl-1-(pyrimidin-2-yl)propyl)amino)-2H-pyrazolo[4,3-b]pyridin-5(4H)-one 0.14 formate] the same measures were 0.058 µM and 0.0373 µM. For `COc1cc(F)c2nc(-c3c(N[C@@H](C)c4ncccn4)c4nn(C)cc4[nH]c3=O)[nH]c2c1` [Compound 2, (S)-6-(4-fluoro-6-methoxy-1H-benzo[d]imidazol-2-yl)-2-methyl-7-((1-(pyrimidin-2-yl)-ethyl)amino)-2H-pyrazolo[4,3-b]pyridin-5(4H)-one] the same measures were 0.018 µM and 0.0161 µM. `COc1cnc2nc(-c3c(N[C@@H](C)c4ncccn4)c4nn(C)cc4[nH]c3=O)[nH]c2c1` [Compound 3, (S)-6-(6-methoxy-1H-imidazo[4,5-b]pyridin-2-yl)-2-methyl-7-((1-(pyrimidin-2-yl)ethyl)amino)-2H-pyrazolo[4,3-b]pyridin-5(4H)-one]: the GI50 in experiment [1] was determined as 0.0234 µM; in experiment [2], 0.0326 µM. For `CCn1cc2[nH]c(=O)c(-c3nc4ccc(OC)cc4[nH]3)c(N[C@@H](C)c3ncccn3)c2n1` [Compound 4, (S)-2-ethyl-6-(6-methoxy-1H-benzo[d]imidazol-2-yl)-7-((1-(pyrimidin-2-yl)ethyl)amino)-2H-pyrazolo[4,3-b]pyridin-5(4H)-one], the results for the GI50 in experiment [1] and in experiment [2] were 0.0219 µM and 0.0318 µM, respectively. Take `CCOc1cc2[nH]c(-c3c(N[C@@H](C)c4ncccn4)c4nn(C)cc4[nH]c3=O)nc2cc1OC` [Compound 7, (S)-6-(6-ethoxy-5-methoxy-1H-benzo[d]imidazol-2-yl)-2-methyl-7-((1-(pyrimidin-2-yl)ethyl)amino)-2,4-dihydro-5H-pyrazolo[4,3-b]pyridin-5-one]: the GI50 was determined as 0.00603 µM in experiment [1] and 0.00636 µM in experiment [2].

Consider `CCOc1cc2[nH]c(-c3c(N[C@@H](C)c4ncccn4)c4nn(CC)cc4[nH]c3=O)nc2cc1OC` [Compound 8, (S)-6-(6-ethoxy-5-methoxy-1H-benzo[d]imidazol-2-yl)-2-ethyl-7-((1-(pyrimidin-2-yl)ethyl)amino)-2H-pyrazolo[4,3-b]pyridin-5(4H)-one], for which the figures for the GI50 in experiment [1] and in experiment [2] were 0.0191 µM and 0.023 µM, respectively.

In the case of `CC[C@H](Nc1c(-c2nc3cnc(N(C)C)cc3[nH]2)c(=O)[nH]c2cn(C)nc12)c1ncccn1` [Compound 22, (S)-6-(6-(dimethylamino)-1H-imidazo[4,5-c]pyridin-2-yl)-2-methyl-7-((1-(pyrimidin-2-yl)propyl)amino)-2H-pyrazolo[4,3-b]pyridin-5(4H)-one], the GI50 in experiment [1] amounted to 0.0244 µM; in experiment [2], 0.0246 µM. For `COc1cc(OC)c2nc(-c3c(N[C@@H](C)c4ncccn4)c4nn(C)cc4[nH]c3=O)[nH]c2c1` [Compound 29, (S)-6-(4,6-Dimethoxy-1H-benzo[d]imidazol-2-yl)-2-methyl-7-((1-(pyrimidin-2-yl)ethyl)amino)-2H-pyrazolo[4,3-b]pyridin-5(4H)-one], the GI50 worked out at 0.016 µM in experiment [1] and 0.0208 µM in experiment [2]. The matching figures for `COc1cc2[nH]c(-c3c(N[C@@H](C)c4ncccn4)c4nn(C)cc4[nH]c3=O)nc2cn1` [Compound 30, (S)-6-(6-methoxy-1H-imidazo[4,5-c]pyridin-2-yl)-2-methyl-7-((1-(pyrimidin-2-yl)ethyl)amino)-2H-pyrazolo[4,3-b]pyridin-5(4H)-one]: 0.0111 µM and 0.00788 µM.

In the case of `CCn1cc2[nH]c(=O)c(-c3nc4c(OC)cc(OC)cc4[nH]3)c(N[C@@H](C)c3ncccn3)c2n1` [Compound 31, (S)-6-(4,6-dimethoxy-1H-benzo[d]imidazol-2-yl)-2-ethyl-7-((1-(pyrimidin-2-yl)ethyl)amino)-2H-pyrazolo[4,3-b]pyridin-5(4H)-one], the GI50 in experiment [2] stood at 0.0645 µM.

For the compound `CCn1cc2[nH]c(=O)c(-c3nc4c(OC)cccc4[nH]3)c(N[C@@H](C)c3ncccn3)c2n1` [Compound 32, (S)-2-ethyl-6-(4-methoxy-1H-benzo[d]imidazol-2-yl)-7-((1-(pyrimidin-2-yl)ethyl)amino)-2H-pyrazolo[4,3-b]pyridin-5(4H)-one], the GI50 was 0.0432 µM in experiment [1] and 0.0696 µM in experiment [2]. As for `CCn1cc2[nH]c(=O)c(-c3nc4cc(OC)c(OCCOC)cc4[nH]3)c(N[C@@H](C)c3ncccn3)c2n1` [Compound 38, (S)-2-ethyl-6-(5-methoxy-6-(2-methoxyethoxy)-1H-benzo[d]imidazol-2-yl)-7-((1-(pyrimidin-2-yl)ethyl)amino)-2H-pyrazolo[4,3-b]pyridin-5(4H)-one], the GI50 in experiment [2] is 0.0373 µM. Turning to `CCn1cc2[nH]c(=O)c(-c3nc4cc(OC)c(OC)cc4[nH]3)c(N[C@@H](C)c3ccccn3)c2n1` [Compound 51, (S)-6-(5,6-dimethoxy-1H-benzo[d]imidazol-2-yl)-2-ethyl-7-((1-(pyridin-2-yl)ethyl)amino)-2,4-dihydro-5H-pyrazolo[4,3-b]pyridin-5-one], the GI50 in experiment [2] was found to be 0.0311 µM. Still for that read-out and setting: for “(S)-6-(5,6-Dimethoxy-1H-benzo[d]imidazol-2-yl)-2-ethyl-7-((1-(pyrimidin-2-yl)ethyl)-amino)-2H-pyrazolo[4,3-b]pyridin-5(4H)-one [Compound 6]” the value was 0.0296 µM.
